The results in this text go back to patent publication US20210130406A1, “PEPTIDE, COMPOSITION, AND METHOD FOR TREATING, PREVENTING, OR AMELIORATING MOOD DISORDER” (KYOTO UNIVERSITY, priority 2018, published 2021).

Test [1] concerns ddy mouse. Briefly: Tail suspension test (motivation-improving effect), oral peptide. Type of test: in vivo. Particulars: 30 minutes after administration, vs saline control. The method, then: (§1) Each prepared peptide was administered to a mouse (ddy mouse (5-week-old male, body weight 24 g-28 g)) in each of the following tests, and then the motivation-improving effect was evaluated by a tail suspension test.
(§2) Each mouse was suspended by the tail and hung 30 cm above the floor, 30 minutes after peptide administration. Subsequently, over a period of 6 minutes from the start of the test (0 minute), the time (immobility time) during which the mouse was in an immobility state after initiating escape behavior was measured. The immobility state is known as a “despair state”, and it can be evaluated that the shorter the immobility time, the better the despair state and the greater the motivation. Therefore, substances that provide a motivation-improving effect in this test can be effective in treating, preventing, or ameliorating mood disorders.
The amino acid sequence represented by SEQ ID NO: 2 was dissolved in physiological saline and orally administered to each mouse in an amount of 0.03, 0.1, or 0.3 mg/kg per body weight (n=5 to 6). As a control, mice were prepared by orally administering physiological saline alone (n=6). Each mouse was subjected to a tail suspension test, and the motivation-improving effect resulting from the peptide of the present invention was evaluated.
Each of the amino acid sequences represented by SEQ ID NOS: 1 to 3 was dissolved in physiological saline and orally administered to mice in an amount of 0.1 mg/kg per body weight (n=5 to 6). As a control, mice were prepared by orally administering physiological saline alone to the mice (n=6). Each mouse was subjected to a tail suspension test, and the motivation-improving effect resulting from the peptide of the present invention was evaluated.

In test [2] the test system is ddy mouse. Briefly: Tail suspension test, peptide combined with receptor antagonists. The format is in vivo. Particulars: Test 3, FIG. 3. The method, then:
as §1, §2
Mice were prepared by orally administering the amino acid sequence represented by SEQ ID NO: 2 in an amount of 0.3 mg/kg and various receptor antagonists in combination thereto (n=5 to 6). Each mouse was subjected to a tail suspension test, and the motivation-improving effect resulting from the peptide of the present invention was evaluated.
(1) SCH23390: dopamine D1 receptor antagonist, and the amount used: 30 μg/kg (2) WAY100135: serotonin 5-HT1A receptor antagonist, and the amount used: 10 mg/kg (3) Bicuculline: GABA-A receptor antagonist, and the amount used: 30 mg/kg

The mark [3] stands for this setting: Test 2, FIG. 2, oral 0.1 mg/kg in physiological saline.

As for QQFLPEG [SEQ ID NO: 3], the immobility time result in test [1] (setting [3]) is reported as “not observed to have any decrease in immobility time”.

On to QQFLPEGQSQSQK [SEQ ID NO: 2], for which the immobility time result in test [2] (oral 0.3 mg/kg combined with Bicuculline (GABA-A receptor antagonist) 30 mg/kg) is “relatively decreased the immobility time”; in test [2] (oral 0.3 mg/kg combined with SCH23390 (dopamine D1 receptor antagonist) 30 μg/kg) it was “significantly increased immobility time”; in test [2] (oral 0.3 mg/kg combined with WAY100135 (serotonin 5-HT1A receptor antagonist) 10 mg/kg) it was “relatively decreased the immobility time”; in test [1] (Test 1, FIG. 1, oral 0.03, 0.1 or 0.3 mg/kg in physiological saline, 6 minutes test, tendency depended on concentration), “shorter than that of the control”; in test [1] (setting [3]), “shorter immobility time than the control”.

For QSQSQK [SEQ ID NO: 1], in test [1] (setting [3]), the immobility time entry is “shorter immobility time than the control”.
